Experimental findings from paper PMC2784108 (Bioorganic & medicinal chemistry, 2009) are described below.

Experiment [1] concerns the target HDM2(11–119) (Homo sapiens, UniProt Q00987). The experiment can be described thus: Fluorescence anisotropy competition, HDM2 binding to fluorescein-labeled p53. (Polarisation of emitted light reports the rotation of a fluorescent probe.)
The target of experiment [2] is T1, GST-HDMX(1–188) (Homo sapiens, UniProt O15151).
T1 sequence (O15151 1-188): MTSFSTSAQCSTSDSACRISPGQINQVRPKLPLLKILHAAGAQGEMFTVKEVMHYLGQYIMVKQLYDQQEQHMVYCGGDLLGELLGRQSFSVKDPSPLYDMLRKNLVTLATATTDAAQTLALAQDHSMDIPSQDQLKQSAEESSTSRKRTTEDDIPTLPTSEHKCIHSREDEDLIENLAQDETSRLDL
The experiment in a line: Fluorescence anisotropy competition, HDMX binding to fluorescein-labeled p53.

The mark [3] stands for this setting: compared with derivative with hydrogen at position Y (NAPA 5).
[4] abbreviates: bromine at position Y replaced with methyl, compared with NAPA 9.

In the case of `CC(C)CCCNC(=O)N(CC(CCC(=O)O)NC(N)=O)C(CCCCN)CN(C(=O)NCCc1ccc(Br)cc1)C(CCC(=O)O)CN(CCC(N)=O)C(=O)NCCCc1ccc(Br)cc1` (stereo not drawn) [NAPA 9], the “inhibition of HDM2 binding with p53 relative to NAPA 5” value in experiment [1] (setting [3]) was “two to four times better”. In addition, the “inhibition of HDMX binding with p53 relative to NAPA 5” value in experiment [2] (setting [3]) is recorded as “two to four times better”.
Take `Cc1ccc(CCCNC(=O)N(CCC(N)=O)CC(CCC(=O)O)N(CC(CCCCN)N(CC(CCC(=O)O)NC(N)=O)C(=O)NCCCC(C)C)C(=O)NCCc2ccc(Br)cc2)cc1` (stereo not drawn) [NAPA 10]: the “activity against HDM2 relative to NAPA 9” value in experiment [1] (setting [4]) is given as “decreased by three times”. Besides, the “inhibitory activity towards HDMX relative to NAPA 9” value in experiment [2] (setting [4]) is given as “did not significantly affect”.
As to `CC(C)CCCCNC(=O)N(CC(CCC(=O)O)NC(N)=O)C(CCCCN)CN(C(=O)NCCc1ccc(Br)cc1)C(CCC(=O)O)CN(CCC(N)=O)C(=O)NCCCc1ccc(Br)cc1` (stereo not drawn) [NAPA 13], the “inhibition of HDM2-p53 binding (in words)” value in experiment [1] is “modest inhibition”. In addition, in experiment [2], the “inhibition of HDMX-p53 binding (in words)” value is reported as “modest inhibition”.
In the case of `CC(C)CCC(=O)N[C@@H](CCCC(=O)O)CN(C(=O)NCCCC1CCCCC1)[C@@H](CCCCN)CN(C(=O)NCCc1ccc(Br)cc1)[C@@H](CCCC(=O)O)CN(CCC(N)=O)C(=O)NCCCc1ccc(F)cc1` [NAPA 34], the “inhibition of HDM2-p53 binding (in words)” value in experiment [1] was “negative impact on inhibitory activity”. Further, the “inhibition of HDMX-p53 binding (in words)” value in experiment [2] is reported as “negative impact on inhibitory activity”.
For `NCCCC[C@@H](CN(C(=O)NCCCC1CCCCC1)[C@@H](CCCCN)CN(C(=O)NCCc1ccc(Br)cc1)[C@@H](CCCCN)CN(CCC(N)=O)C(=O)NCCCc1ccc(F)cc1)NC(N)=O` [NAPA 35], the “inhibition of HDM2-p53 binding (in words)” value in experiment [1] is “eliminated all inhibitory activity”. The “inhibition of HDMX-p53 binding (in words)” value in experiment [2] is “eliminated all inhibitory activity”.
As for `CC(C)CCC(=O)NC(CCC(=O)O)CN(CCC1CCC2(CCCCC2)CC1)C(CCCCN)CN(CCCCc1ccc(Br)cc1)[C@@H](CCC(=O)O)CN(CCCCCc1ccc(F)cc1)CCC(N)=O` (stereo partly drawn) [NAPA 36], the “inhibition of HDM2-p53 binding (in words)” value in experiment [1] is recorded as “no inhibitory activity”. In addition, the “inhibition of HDMX-p53 binding (in words)” value in experiment [2] was “no inhibitory activity”.
